Measurements taken from PMC8980233, “Differentiating the Neuropharmacological Properties of Nicotinic Acetylcholine Receptor-Activating Alkaloids” (Frontiers in Pharmacology, 2022).
Counter-ions that a name gives are not always drawn. Each block holds one molecule with its values, some of them ahead of it.

Experiments:
[1] = test system: C57Bl/6 mice; test: Tolerability test (body weight, body temperature, passive signs, manipulation responses); details: for tolerability: highest dose 10 mg/kg i.p.; for BT (°C) naïve / Manipulations naïve / Passive naïve: baseline; for BW Day 1 / BW Day 2: mean ± SD
Protocol: In brief, mice were single-housed prior to the test and evaluated for baseline body weight, body temperature, and other parameters. […] On day 1, the mice were i. p. injected with saline (vehicle) or a test compound at 10 ml/kg body weight. Then, body temperature was measured at 15 min, 4 h, and 24 h and body weight on days 1 and 2. Neurological and motor parameters were evaluated at 15 min, 2 h, and 4 h after administration. The list of parameters is provided in Supplementary Figure S1 in Supplementary Material S1.
In addition, within 5 min after the 15-min observation period, mice were placed in open-field chambers for 30 min to determine their general motor activity (distance traveled), ambulatory time, and number of rears. The open-field chambers were made of Plexiglas (27.3 × 27.3 × 20.3 cm; Med Associates Inc, St Albans, VT, United States) surrounded by infrared photobeam sources (16 × 16 × 16 beams). Horizontal activity (distance and time traveled) and vertical activity (number and frequency of rears) were measured by consecutive beam breaks. At the end of each open-field test session, the chambers were thoroughly cleaned with NOLVASAN® solution (Zoetis Services LLC, Parsippany, NJ, United States). Four mice were used per treatment condition. Mice were terminated after completion of the last tolerability observation.
All compounds were diluted in saline, and the pH was adjusted to approximately 7.0 with HCl or NaOH on the day of the experiment. […] The doses were calculated based on the free base molecular weight of the compounds.
For the tolerability tests, passive signs and manipulation responses were analyzed for effects of the treatment by the Kruskal–Wallis test. Body temperature and body weight data were analyzed by two-way repeated measures analysis of variance (ANOVA). The total distance and time traveled and number and frequency of rears in the open-field activity test were analyzed by one-way ANOVA, followed by the Tukey post-hoc test. For the analyses of the zebrafish NTT data, one-way ANOVA was used, followed by Dunnett’s multiple comparison test, if it passed the Shapiro-Wilk normality test. […] An effect was considered significant if p < 0.05. The half maximal effective concentration (EC50) and half-maximal inhibitory concentration (IC50) for the receptor pharmacology and neurotransmitter release assay were determined by using nonlinear regression analysis. Statistical analyses were conducted using GraphPad Prism.

[2] = test system: norepinephrine release from hippocampal synaptosomes; test: In vitro [3H]norepinephrine release from crude hippocampal synaptosomes; assay type: biochemical, rat
Protocol: In vitro neurotransmitter assays using crude synaptosome preparations were conducted by Gifford Biosciences Limited (Birmingham, UK) based on the previously described protocols ([Clarke and Reuben, 1996]; [Gifford et al., 2000]). In brief, male Sprague Dawley rats (200–225 g) were terminated by cervical dislocation followed by decapitation. The striatums or hippocampi were dissected and homogenized in ice-cold 0.32 M sucrose using a Dounce homogenizer. The homogenates were centrifuged at 100 x g for 5 min to pellet cell debris. The supernatants were collected and centrifuged at 17,000 x g for 10 min at 4°C to pellet crude synaptosomes. The pellets were resuspended in 5 ml Krebs buffer, pH 7.4 (in mM (pH 7.4): 120 NaCl, 3.3 KCl, 1.2 MgSO4, 1.3 CaCl2, 1.2 K2HPO4, 25 HEPES, 11 glucose, 0.01 ascorbic acid, 0.025 pargyline, and 0.1% BSA containing 2 μCi/ml [^3H]norepinephrine for hippocampal synaptosomes or 1 μCi/ml [^3H]dopamine for striatal synaptosomes and incubated for 15 min at 35°C with gentle shaking.
(§1) The [^3H]norepinephrine- or [^3H]dopamine-treated crude synaptosomes were loaded onto closed filter chambers containing Whatman® Grade GF/C Glass Microfiber filters (Sigma-Aldrich, Merck KGaA, Darmstadt, Germany) and placed in a superfusion system. Preoxygenated Krebs buffer was perfused through the chambers at a rate of 1 ml/min at 37 °C using an 8-channel peristaltic pump. To ensure an even flow over the synaptosomal bed, trapped air bubbles were removed from the filters prior to collection of the fractions. After a superfusion period of 40 min, three basal fractions (1.5 ml/fraction) were collected first, followed by three fractions (1.5 ml/fraction) containing the test compound. Two additional fractions were collected in the presence of 30 mM KCl to depolarize the synaptosomes. A 0.4-ml aliquot of each fraction was then transferred to a counting plate, and a scintillation cocktail was added to measure the radioactivity using a Wallac® TriLux 1450 MicroBeta counter (PerkinElmer Life Sciences, Zaventem, Belgium). Once all fractions were collected, the filters holding the crude synaptosome samples were removed and dried overnight at room temperature. On the following day, the scintillation cocktail was added and the filters were counted to determine residual radioactivity.
(§2) Compound-evoked release of neurotransmitters was calculated by subtracting the counts per minute (CPM) in the two basal fractions collected immediately prior to compound addition from those in the two fractions collected immediately following compound addition. The compound-evoked release was then expressed as a percentage of the basal release from that chamber. Potassium-evoked release was calculated by subtracting the CPM in the fraction immediately prior to KCl addition from the CPM in the […] immediately following potassium addition. Stimulated release was calculated as the percentage of basal release for that chamber. The increase in stimulated release above the baseline (no compound) release for that experimental run was determined, and the latter values were plotted on the graphs. Dose–response curves were determined using non-linear curve fitting in Prism (GraphPad Software, Inc, San Diego, CA, United States). All experiments were repeated at least three times.

[3] = test system: dopamine release from striatal synaptosomes; test: In vitro [3H]dopamine release from crude striatal synaptosomes; assay type: biochemical, rat; details: for EC50: striatal synaptosomes
Protocol: In brief, male Sprague Dawley rats (200–225 g) were terminated by cervical dislocation followed by decapitation. The striatums or hippocampi were dissected and homogenized in ice-cold 0.32 M sucrose using a Dounce homogenizer. The homogenates were centrifuged at 100 x g for 5 min to pellet cell debris. The supernatants were collected and centrifuged at 17,000 x g for 10 min at 4°C to pellet crude synaptosomes.
as §1, with “Preoxygenated Krebs buffer was perfused through the chambers at a rate of 1 ml/min at 37 °C using an 8-channel peristaltic pump.” left out, “A 0.4-ml aliquot of each fraction was then transferred to a counting plate, and a scintillation cocktail was added to measure the radioactivity using a Wallac® TriLux 1450 MicroBeta counter (PerkinElmer Life Sciences, Zaventem, Belgium).” left out
as §2

[4] = test system: zebrafish (Danio rerio; strain AB); test: Zebrafish novel tank test (NTT)
Protocol: Adult male and female wild-type zebrafish were treated with the compounds for 20 min in a final volume of 50 ml in a 250-ml treatment beaker one fish at a time. The fish were briefly rinsed in fresh system water, and then immediately transferred to a trapezoidal tank (14.6 cm height x 5.5 cm width x 27.9 cm top length and x 23.6 cm bottom length) filled with 1.5 L system water. The behavior of the fish was monitored for the next 5 min by using the Noldus EthoVision XT system (Wageningen, Netherlands), with the camera placed approximately 1 m from the test tank. The part of the tank filled with water (11.5 cm height) was virtually divided into top, center, and bottom of equal heights (approximately 3.8 cm per segment) for the analysis. The average time spent at the top and bottom portions of the tank was analyzed to determine the anxiety-like behavior of fish. The average total distance travelled and freezing time were calculated to determine the effects of the compounds on the general behavior of fish. Freezing was defined by a complete cessation of movement except for gills and eyes ([Kalueff et al., 2013]). A minimum of 12 fish (6 females and 6 males) per condition were used for the study. The experimenter was blind to the test conditions.
If not, the dose was reduced until no obvious signs of tolerability problems were observed. […] The concentrations were calculated based on the free base molecular weight. Buspirone—a clinical anxiolytic drug used acutely and chronically to investigate the change in the anxiety-like behavior ([Maximino, et al., 2011]; [Maximino, et al., 2013])—was included as a positive control.

SMILES: O=C(c1ccc(Cl)o1)N1CC2CNCC2C1 (stereo not drawn) [AZD1446, 3-(5-chloro-2-furoyl)-3,7-diazabicyclo[3.3.0]octane]
tolerability [1]: well tolerated | change in norepinephrine release [2]: negligible change | EC50 [3]: 8.4 µM

SMILES: O=C(N[C@H]1CN2CCC1CC2)c1ccc(Cl)cc1 [PNU282987]
BT (°C) naïve ([1]; 1 mg/kg group): 36.48 ± 0.38 °C | Manipulations naïve ([1]; 1 mg/kg group): 2.00 ± 1.63 | Passive naïve ([1]; 1 mg/kg group): 0.25 ± 0.50 | BT (°C) 15min ([1]; 1 mg/kg i.p.): 38.13 ± 0.15 °C | BT (°C) 4hr ([1]; 1 mg/kg i.p.): 36.60 ± 0.18 °C | BT (°C) 24hr ([1]; 1 mg/kg i.p.): 36.85 ± 0.66 °C | Manipulations 15min ([1]; 1 mg/kg i.p.): 1.25 ± 1.26 | Manipulations 2hr ([1]; 1 mg/kg i.p.): 0.75 ± 0.50 | Manipulations 4hr ([1]; 1 mg/kg i.p.): 0.75 ± 0.96 | Passive 15min ([1]; 1 mg/kg i.p.): 0.50 ± 0.58 | Passive 2hr ([1]; 1 mg/kg i.p.): 0.00 ± 0.00 | Passive 4hr ([1]; 1 mg/kg i.p.): 0.00 ± 0.00 | BW Day 1 ([1]; 1 mg/kg i.p.): 24.03 ± 2.46 | BW Day 2 ([1]; 1 mg/kg i.p.): 23.78 ± 2.61 | BT (°C) naïve ([1]; 3 mg/kg group): 36.50 ± 0.24 °C | Manipulations naïve ([1]; 3 mg/kg group): 0.75 ± 0.96 | Passive naïve ([1]; 3 mg/kg group): 0.25 ± 0.50 | BT (°C) 15min ([1]; 3 mg/kg i.p.): 37.85 ± 0.54 °C | BT (°C) 4hr ([1]; 3 mg/kg i.p.): 36.63 ± 0.21 °C | BT (°C) 24hr ([1]; 3 mg/kg i.p.): 36.40 ± 0.12 °C | Manipulations 15min ([1]; 3 mg/kg i.p.): 0.75 ± 0.96 | Manipulations 2hr ([1]; 3 mg/kg i.p.): 0.50 ± 0.58 | Manipulations 4hr ([1]; 3 mg/kg i.p.): 0.25 ± 0.50 | Passive 15min ([1]; 3 mg/kg i.p.): 0.50 ± 0.58 | Passive 2hr ([1]; 3 mg/kg i.p.): 0.00 ± 0.00 | Passive 4hr ([1]; 3 mg/kg i.p.): 0.00 ± 0.00 | BW Day 1 ([1]; 3 mg/kg i.p.): 23.38 ± 0.54 | BW Day 2 ([1]; 3 mg/kg i.p.): 23.47 ± 0.57 | BT (°C) naïve ([1]; 10 mg/kg group): 36.73 ± 1.13 °C | Manipulations naïve ([1]; 10 mg/kg group): 1.25 ± 0.96 | Passive naïve ([1]; 10 mg/kg group): 0.25 ± 0.50 | BT (°C) 15min ([1]; 10 mg/kg i.p.): 37.73 ± 0.46 °C | BT (°C) 4hr ([1]; 10 mg/kg i.p.): 36.83 ± 0.59 °C | BT (°C) 24hr ([1]; 10 mg/kg i.p.): 36.10 ± 0.52 °C | Manipulations 15min ([1]; 10 mg/kg i.p.): 0.50 ± 0.58 | Manipulations 2hr ([1]; 10 mg/kg i.p.): 0.25 ± 0.50 | Manipulations 4hr ([1]; 10 mg/kg i.p.): 0.50 ± 0.58 | Passive 15min ([1]; 10 mg/kg i.p.): 0.00 ± 0.00 | Passive 2hr ([1]; 10 mg/kg i.p.): 0.00 ± 0.00 | Passive 4hr ([1]; 10 mg/kg i.p.): 0.00 ± 0.00 | BW Day 1 ([1]; 10 mg/kg i.p.): 23.62 ± 1.10 | BW Day 2 ([1]; 10 mg/kg i.p.): 22.94 ± 1.25 | tolerability [1]: well tolerated | change in norepinephrine release [2]: negligible change | dopamine release ([3]; at higher concentrations): 20–30%

SMILES: CC(=O)OCC[N+](C)(C)C [acetylcholine]
EC50 ([2]; hippocampal synaptosomes): 13.5 µM | EC50 [3]: 0.27 µM

freezing time ([4]; 100 mg/L): increased | total distance traveled ([4]; 100 mg/L): decreased
SMILES: O=C1CC2(CCCC2)CC(=O)N1CCCCN1CCN(c2ncccn2)CC1 [buspirone, buspirone hydrochloride]
time spent at the top ([4]; all three doses tested (10, 30, and 100 mg/L)): increased the time spent at the top | time spent at the bottom ([4]; middle two doses (10 and 30 mg/L)): reduced the time spent at the bottom
